What all share (test): NCI tumour cell line growth inhibition, 48 h
Experiment [1] concerns COLO 205.
Experiment [2] has as its system DU-145.
Experiment [3] deals with HOP-92.
The test system of experiment [4] is RPMI-8226.
For experiment [5], the system named is SK-MEL-28.
Experiment [6] deals with SK-MEL-5.
The subject of experiment [7] is SK-MEL-2.
In experiment [8] the test system is KM-20L2.
Experiment [9] relates to SR.
Experiment [10] relates to NCI-H23.
The test system of experiment [11] is K562.
For experiment [12], the system named is MDA-N.
Experiment [13] deals with NCI-H460.
For experiment [14], the system named is UACC-257.
Experiment [15] has as its system HCT-116.
Experiment [16] has as its system 786-0.
Experiment [17] deals with HT-29.
Experiment [18] deals with OVCAR-4.
Experiment [19] has as its system A498.
Experiment [20] relates to OVCAR-3.

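Growth conditions: 96-well plates. Treatment: test compound, 48 hours, 5 concentrations. Analysis: linear interpolation between bracketing concentrations; unreached endpoints set to highest concentration. The concentration for 50% growth inhibition is given as GI50.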 Active and inactive are the calls of the source. Cut-off read from the data, not from the text of the source: active = GI50 up to about 1.1 µM and inactive = higher. Bounds are passed on as bounds.

Consider 12 compounds from ChEMBL document CHEMBL1201862, “PubChem BioAssay data set” (2004).

For `O=C1NC2C(=CC(O)C(O)C2O)c2cc3c(cc21)OCO3` (centres undefined), the GI50 is 0.2 µM (active) in experiment [1]; 0.056 µM (active) in experiment [2]; 0.904 µM (active) in experiment [3]; 0.414 µM (active) in [4]; 0.417 µM (active) in experiment [5]; 0.164 µM (active) in experiment [6]. For the same compound, the GI50 was 0.351 µM (active) in [7]; 0.305 µM (active) in [8]; 0.109 µM (active) in experiment [9]; 0.459 µM (active) in [10]; 0.34 µM (active) in experiment [11]; 0.0832 µM (active) in experiment [12]. In addition, the GI50 is 0.194 µM (active) in [13]; 0.695 µM (active) in experiment [14]; 0.15 µM (active) in experiment [15]; 0.245 µM (active) in experiment [16]; 0.345 µM (active) in experiment [17]; 0.338 µM (active) in experiment [18]. Besides, the GI50 was 0.759 µM (active) in [19] and 0.372 µM (active) in experiment [20].

In the case of `Cc1ccc2c(C)c3ccc4ccccc4c3c[n+]2c1.[O-][Cl+3]([O-])([O-])[O-]`, the GI50 in [1] is 12.2 µM (inactive); in [3], 17.9 µM (inactive); in [4], 16.6 µM (inactive); in experiment [5] it was 15.3 µM (inactive); in experiment [6], 12 µM (inactive); in experiment [7] it was 13.9 µM (inactive). Moreover, the GI50 in experiment [8] is 33.3 µM (inactive); in experiment [9], 12 µM (inactive); in experiment [10], 14.6 µM (inactive); in experiment [11], 56.5 µM (inactive); in [13] it was 14.3 µM (inactive); in [14], 12.4 µM (inactive). The GI50 is 27.5 µM (inactive) in experiment [15]; 9.18 µM (inactive) in [16]; 32.4 µM (inactive) in experiment [17]; 16 µM (inactive) in experiment [18]; 60 µM (inactive) in [19]; 7.35 µM (inactive) in experiment [20].

`COC(=O)C(/C(=N/N)C(=O)Nc1cc(Cl)ccc1Cl)c1nc2ccc([N+](=O)[O-])cc2nc1O` (centres undefined): the GI50 in experiment [1] is > 100 µM (inactive); in experiment [3], 30.7 µM (inactive); in [4], > 100 µM (inactive); in [5] it was > 100 µM (inactive); in experiment [6], > 100 µM (inactive); in experiment [7], > 100 µM (inactive). The GI50 in experiment [8] was 49.9 µM (inactive); in [9], > 100 µM (inactive); in experiment [10], > 100 µM (inactive); in experiment [11] it was 2.74 µM (inactive); in experiment [13] it was > 100 µM (inactive); in [14], > 100 µM (inactive). Besides, the GI50 in experiment [15] was > 100 µM (inactive); in experiment [16] it was > 100 µM (inactive); in experiment [17], > 100 µM (inactive); in [18], > 100 µM (inactive); in experiment [19], 58.5 µM (inactive); in experiment [20], > 100 µM (inactive).

As for `CCN(N=O)C1C2(CCCC2)NC(=O)C12CCCC2` (centres undefined), the GI50 in [4], in [5], in [8], in [9], in experiment [10] and in experiment [11] was > 100 µM (inactive) each time. Further, the GI50 in [13], in [14], in experiment [15], in experiment [16], in experiment [17] and in experiment [18] was > 100 µM (inactive) in each case. The GI50 in [19] and in experiment [20] was > 100 µM (inactive) throughout.

On to `CC(C)C1CCC/C=C/C=C/C=C/C=C/C(OC2OC(C)C(O)C(N)C2O)CC2OC(O)(CC(O)CC(O)C(O)CCC(=O)O1)CC(O)C2C(=O)O` (centres undefined), for which the GI50 in experiment [1], in [3], in experiment [4], in [5], in [6] and in experiment [8] was > 52.5 µM (inactive) throughout. Besides, the GI50 in [9], in experiment [11], in [15], in experiment [16], in experiment [17] and in experiment [19] was > 52.5 µM (inactive) throughout. Also, in [20], the GI50 is > 52.5 µM (inactive).

Turning to `Cc1c2n(c(=O)[nH]c1=O)C1OC(CO)C(O2)C1O` (centres undefined), the GI50 in experiment [1], in experiment [3], in experiment [4], in experiment [5], in experiment [6] and in experiment [7] was > 100 µM (inactive) throughout. The GI50 in experiment [8], in experiment [9], in experiment [10], in experiment [11], in experiment [13] and in experiment [14] was > 100 µM (inactive) each time. Moreover, the GI50 was > 100 µM (inactive) in experiment [15]; > 100 µM (inactive) in experiment [16]; > 100 µM (inactive) in [17]; > 100 µM (inactive) in experiment [18]; 23 µM (inactive) in experiment [19]; > 100 µM (inactive) in experiment [20].

In the case of `O=C(c1ccc(Cl)cc1)N(C(=S)N1CCN(c2ccccn2)CC1)C1CCCCC1`, the GI50 in [1] is 44.4 µM (inactive); in experiment [3], > 100 µM (inactive); in experiment [4], 25.5 µM (inactive); in experiment [5], > 100 µM (inactive); in experiment [6], 38.7 µM (inactive); in experiment [7] it was > 100 µM (inactive). Further, the GI50 in experiment [8] is 74.1 µM (inactive); in experiment [9], 41.1 µM (inactive); in [10], 96.8 µM (inactive); in experiment [11], 37.6 µM (inactive); in [13], 30 µM (inactive); in experiment [14], 30.8 µM (inactive). Besides, the GI50 in [15] was 36.6 µM (inactive); in experiment [16], 36.4 µM (inactive); in [17] it was 55.3 µM (inactive); in [18], > 100 µM (inactive); in experiment [20], 45.9 µM (inactive).

On to `CCCN(CCCN)/[N+]([O-])=N\O`, for which the GI50 in [1], in [3], in [4], in experiment [5], in [6] and in experiment [7] was > 100 µM (inactive) each time. Further, the GI50 in [8] is 0.4 µM (active); in experiment [9], > 100 µM (inactive); in [10], > 100 µM (inactive); in experiment [11], > 100 µM (inactive); in experiment [13], > 100 µM (inactive); in experiment [14], > 100 µM (inactive). Further, the GI50 in experiment [15], in experiment [16], in experiment [17], in [18] and in experiment [20] was > 100 µM (inactive) throughout.

Consider `COC1(OC)C(N(C)C)=C(Cl)C(=O)/C1=C/C=O`, for which the GI50 is > 100 µM (inactive) in experiment [1]; 47 µM (inactive) in experiment [3]; 61 µM (inactive) in experiment [4]; 53.8 µM (inactive) in experiment [5]; > 100 µM (inactive) in experiment [6]; > 100 µM (inactive) in experiment [8]. Also, the GI50 in experiment [9] is 57.3 µM (inactive); in experiment [10], > 100 µM (inactive); in [11] it was 33.1 µM (inactive); in experiment [13], > 100 µM (inactive); in experiment [14], 83.8 µM (inactive); in experiment [15], > 100 µM (inactive). Besides, the GI50 in experiment [16] was > 100 µM (inactive); in [17] it was > 100 µM (inactive); in [18] it was > 100 µM (inactive); in [19], > 100 µM (inactive); in [20], 60.1 µM (inactive).

`O=C1c2ccccc2C(=O)c2sc(Nc3ccc([N+](=O)[O-])cc3)nc21`: the GI50 in experiment [1] is 8.59 µM (inactive); in experiment [2] it was 19.2 µM (inactive); in experiment [3] it was 13.8 µM (inactive); in [4], 2.35 µM (inactive); in experiment [5] it was 10.6 µM (inactive); in experiment [6] it was 2.39 µM (inactive). Moreover, the GI50 was 13.6 µM (inactive) in experiment [7]; 22.7 µM (inactive) in [8]; 2.63 µM (inactive) in experiment [9]; 2.67 µM (inactive) in [10]; 2.17 µM (inactive) in experiment [11]; 2 µM (inactive) in experiment [12]. In addition, the GI50 in experiment [13] is 10 µM (inactive); in experiment [14] it was 4.9 µM (inactive); in experiment [15] it was 6.62 µM (inactive); in experiment [16] it was 5.27 µM (inactive); in experiment [17], 23.8 µM (inactive); in experiment [18] it was 4.4 µM (inactive). Also, the GI50 in experiment [19] was 17.2 µM (inactive); in experiment [20], 2.24 µM (inactive).

Take `Nc1ccn(C2(CO)C=C(CO)C(O)C2O)c(=O)n1` (centres undefined): the GI50 in experiment [1], in experiment [4], in experiment [5], in [6], in [7] and in experiment [8] was > 25.8 µM (inactive) each time. Besides, the GI50 in experiment [9], in [11], in experiment [13], in experiment [14], in experiment [15] and in experiment [16] was > 25.8 µM (inactive) in each case. Also, the GI50 in [18], in experiment [19] and in experiment [20] was > 25.8 µM (inactive) each time.

For the compound `COc1cc(O)c2c(c1)C(=O)C1=C(C2=O)C(O)C[C@@](C)(O)C1` (some centres undefined), the GI50 was 0.264 µM (active) in experiment [1]; 1.1 µM (active) in experiment [3]; 1.86 µM (inactive) in experiment [4]; 1.5 µM (inactive) in experiment [5]; 1.63 µM (inactive) in experiment [7]; 3.36 µM (inactive) in [8]. For the same compound, the GI50 is 2.4 µM (inactive) in experiment [9]; 1.53 µM (inactive) in experiment [10]; 0.457 µM (active) in [11]; 1.92 µM (inactive) in experiment [13]; 0.335 µM (active) in experiment [14]; 0.445 µM (active) in [15]. Moreover, the GI50 in [16] is 3.08 µM (inactive); in experiment [17] it was 0.475 µM (active); in [18], 1.51 µM (inactive); in experiment [19], 1.28 µM (inactive); in experiment [20], 0.822 µM (active).
